Assay results as given in PubChem BioAssay AID248 (DTP/NCI, 2004).
“And” between values parts separate entries of the source, which are not always exact repeats. Equal entries are not always repeated. Toxic doses and inconclusive results are not listed. No stated cut-off is given here; in the data, active means T/C of 150% or more; inactive means T/C below 125%.

Test system: L1210 leukemia ip in BDF1 mice, survival T/C
Assay: NCI In Vivo Anticancer Drug Screen. Data for tumor model L1210 Leukemia (intraperitoneal) in B6D2F1 (BDF1) mice
Settings: endpoint: mean survival time, higher = longer survival
How it was run: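 Transplantable tumor model; survival measured in treated vs vehicle control mice. Value = treated/control.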

[1] = dose: 12.5 mg/kg/injection, schedule: Q01DX001 (ip), vehicle: saline
[2] = dose: 25.0 mg/kg/injection, schedule: Q01DX001 (ip), vehicle: saline
[3] = dose: 50.0 mg/kg/injection, schedule: Q01DX001 (ip), vehicle: saline
[4] = dose: 100.0 mg/kg/injection, schedule: Q01DX001 (ip), vehicle: saline
[5] = dose: 100.0 mg/kg/injection, schedule: Q01DX009 (ip), vehicle: saline
[6] = dose: 100.0 mg/kg/injection, schedule: Q04DX003 (ip), vehicle: saline
[7] = dose: 200.0 mg/kg/injection, schedule: Q01DX009 (ip), vehicle: saline
[8] = dose: 200.0 mg/kg/injection, schedule: Q04DX003 (ip), vehicle: saline
[9] = dose: 400.0 mg/kg/injection, schedule: Q04DX003 (ip), vehicle: saline
[10] = dose: 50.0 mg/kg/injection, schedule: Q01DX009 (ip), vehicle: saline with Tween-80
[11] = dose: 200.0 mg/kg/injection, schedule: Q01DX001 (ip), vehicle: saline
[12] = dose: 400.0 mg/kg/injection, schedule: Q01DX001 (ip), vehicle: saline
[13] = dose: 100.0 mg/kg/injection, schedule: Q04DX002 (ip), vehicle: saline with Tween-80
[14] = dose: 200.0 mg/kg/injection, schedule: Q04DX002 (ip), vehicle: saline with Tween-80
[15] = dose: 400.0 mg/kg/injection, schedule: Q04DX002 (ip), vehicle: saline with Tween-80
[16] = dose: 100.0 mg/kg/injection, schedule: Q01DX009 (ip), vehicle: saline with Tween-80
[17] = dose: 100.0 mg/kg/injection, schedule: Q04DX003 (ip), vehicle: saline with Tween-80
[18] = dose: 200.0 mg/kg/injection, schedule: Q01DX009 (ip), vehicle: saline with Tween-80
[19] = dose: 200.0 mg/kg/injection, schedule: Q04DX003 (ip), vehicle: saline with Tween-80
[20] = dose: 50.0 mg/kg/injection, schedule: Q01DX001 (ip), vehicle: Klucel (hydroxypropylcellulose) (HPC)
[21] = dose: 100.0 mg/kg/injection, schedule: Q01DX001 (ip), vehicle: Klucel (hydroxypropylcellulose) (HPC)
[22] = dose: 200.0 mg/kg/injection, schedule: Q01DX001 (ip), vehicle: Klucel (hydroxypropylcellulose) (HPC)
[23] = dose: 400.0 mg/kg/injection, schedule: Q01DX009 (ip), vehicle: saline with Tween-80

Measured: T/C

CCN(CC)CCCC(C)Nc1ccnc(/C=C/c2ccc(C(F)(F)F)cc2)c1 (centres undefined)
inactive: [1] 98 % of control | dose: 20.0 mg/kg/injection, schedule: Q04DX003 (ip), vehicle: saline 95 % of control | [2] 96 % of control | dose: 40.0 mg/kg/injection, schedule: Q04DX003 (ip), vehicle: saline 95 % of control | [3] 104 % of control | dose: 80.0 mg/kg/injection, schedule: Q04DX003 (ip), vehicle: saline 93 % of control | [4] 86 % of control

CCN(CC)C(=O)Cn1ccc(NC(C)=O)nc1=O
inactive: [5] 104 % of control | [6] 106 % of control | [7] 98 % of control | [8] 113 % of control | dose: 400.0 mg/kg/injection, schedule: Q01DX009 (ip), vehicle: saline 98 % of control | [9] 111 % of control

C=C(Cl)COC1CCS(=O)(=O)C1 (centres undefined)
inactive: dose: 6.25 mg/kg/injection, schedule: Q01DX009 (ip), vehicle: saline with Tween-80 94 % of control and 101 % of control | dose: 12.5 mg/kg/injection, schedule: Q01DX009 (ip), vehicle: saline with Tween-80 95 % of control and 97 % of control | dose: 25.0 mg/kg/injection, schedule: Q01DX009 (ip), vehicle: saline with Tween-80 100 % of control and 122 % of control | [10] 97 % of control

Cc1ccc(NC(=O)Nc2cc(S(=O)(=O)O)ccc2Oc2ccccc2Cl)cc1
inactive: dose: 100.0 mg/kg/injection, schedule: Q01DX009 (ip), vehicle: saline sonified 95 % of control | dose: 200.0 mg/kg/injection, schedule: Q01DX009 (ip), vehicle: saline sonified 103 % of control

COc1cc2c(cc1OC)C13CCN4C=C5CCOC6CC(=O)N2C1C6C5CC43 (centres undefined)
inactive: dose: 75.0 mg/kg/injection, schedule: Q01DX001 (ip), vehicle: other 96 % of control

C/C=C/c1nc2c([nH]1)c(=O)n(C)c(=O)n2C
inactive: [3] 107 % of control | [4] 107 % of control | [11] 104 % of control | [12] 98 % of control

CN(C)P(=O)(Oc1c(Cl)c(Cl)c(Cl)c(Cl)c1Cl)Oc1c(Cl)c(Cl)c(Cl)c(Cl)c1Cl
inactive: [13] 107 % of control | [14] 110 % of control | [15] 93 % of control

NS(=O)(=O)c1ccc(NC(=O)c2ccc(C(=O)Nc3ccc(S(N)(=O)=O)cc3)cc2)cc1
inactive: [4] 100 % of control | [11] 100 % of control | [12] 100 % of control

O=C(/C=N/O)Nc1cc(Cl)c(Cl)cc1Cl
inactive: [10] 97 % of control | [16] 94 % of control | [17] 98 % of control | [18] 94 % of control | [19] 103 % of control

CC(=O)CC(=O)Nc1ccccc1C
inactive: [20] 100 % of control | [21] 106 % of control | [22] 106 % of control

COCCNP(=O)(OC)OC
inactive: dose: 50.0 mg/kg/injection, schedule: Q01DX009 (ip), vehicle: acetone 100 % of control | dose: 50.0 mg/kg/injection, schedule: Q04DX003 (ip), vehicle: acetone 96 % of control | dose: 100.0 mg/kg/injection, schedule: Q01DX001 (ip), vehicle: acetone 110 % of control | dose: 100.0 mg/kg/injection, schedule: Q01DX009 (ip), vehicle: acetone 108 % of control | dose: 100.0 mg/kg/injection, schedule: Q04DX003 (ip), vehicle: acetone 101 % of control | dose: 200.0 mg/kg/injection, schedule: Q01DX001 (ip), vehicle: acetone 102 % of control | dose: 200.0 mg/kg/injection, schedule: Q01DX009 (ip), vehicle: acetone 97 % of control | dose: 200.0 mg/kg/injection, schedule: Q04DX003 (ip), vehicle: acetone 111 % of control

Cc1cc(N(CCCOS(C)(=O)=O)CCCOS(C)(=O)=O)ccc1C=Nc1ccc(-c2csc(COc3ccc(Cl)cc3Cl)n2)cc1
inactive: [16] 91 % of control | [18] 96 % of control | [23] 94 % of control

CCOC(=O)NC(C)(CC)c1ccccc1 (centres undefined)
inactive: dose: 100.0 mg/kg/injection, schedule: Q01DX001 (ip), vehicle: other 105 % of control | dose: 200.0 mg/kg/injection, schedule: Q01DX001 (ip), vehicle: other 109 % of control | dose: 400.0 mg/kg/injection, schedule: Q01DX001 (ip), vehicle: other 117 % of control

CCSc1c(Cl)c(Cl)c(Cl)c(Cl)c1Cl
inactive: dose: 100.0 mg/kg/injection, schedule: Q01DX009 (ip), vehicle: Klucel (hydroxypropylcellulose) (HPC) 97 % of control | dose: 200.0 mg/kg/injection, schedule: Q01DX009 (ip), vehicle: Klucel (hydroxypropylcellulose) (HPC) 100 % of control | dose: 400.0 mg/kg/injection, schedule: Q01DX009 (ip), vehicle: Klucel (hydroxypropylcellulose) (HPC) 87 % of control

CCC1(O)C(=O)OCc2c1ccn(Cc1ccc3ccccc3c1)c2=O (centres undefined)
inactive: [2] 92 % of control | [3] 97 % of control | [4] 96 % of control | [11] 94 % of control

NC(=O)C(O)C(O)C(O)C(O)C(N)=O (centres undefined)
inactive: dose: 50.0 mg/kg/injection, schedule: Q01DX009 (ip), vehicle: saline 100 % of control | [5] 98 % of control | [6] 92 % of control | [7] 93 % of control | [8] 93 % of control

Cc1ccccc1-n1nnc2ccccc2c1=O
inactive: [4] 95 % of control | [6] 95 % of control | [11] 92 % of control | [8] 115 % of control | [12] 89 % of control | [9] 88 % of control

CCCCCC(C)NCC(C)O (centres undefined)
inactive: dose: 75.0 mg/kg/injection, schedule: Q01DX001 (ip), vehicle: acid diluted with saline 100 % of control

NC1=NC(CCc2ccccc2)N(c2cccc(Cl)c2)C(N)=N1 (centres undefined)
inactive: dose: 6.25 mg/kg/injection, schedule: Q01DX001 (ip), vehicle: saline 104 % of control | [1] 98 % of control | [2] 106 % of control

CN(Cc1cnc2cc(N)[nH]c(=O)c2n1)c1ccc(C(=O)NC(CCC(=O)O)C(=O)O)cc1 (centres undefined)
inactive: dose: 100.0 mg/kg/injection, schedule: Q04DX002 (ip), vehicle: water 94 % of control | dose: 200.0 mg/kg/injection, schedule: Q04DX002 (ip), vehicle: water 99 % of control | dose: 400.0 mg/kg/injection, schedule: Q04DX002 (ip), vehicle: water 118 % of control

O=C1CC23CCC12CCCC3=O (centres undefined)
inactive: [13] 100 % of control | [14] 93 % of control | [15] 97 % of control

COc1ccc(-n2c(O)c(N=Nc3ccc(Br)cc3)c(=O)n(-c3ccccc3)c2=S)cc1
inactive: [20] 102 % of control | [21] 104 % of control | [22] 100 % of control

CCC(=O)C(CC)c1ccccc1 (centres undefined)
inactive: [16] 95 % of control | [17] 102 % of control | [18] 94 % of control | [19] 97 % of control | [23] 100 % of control | dose: 400.0 mg/kg/injection, schedule: Q04DX003 (ip), vehicle: saline with Tween-80 97 % of control

Cc1ccc(N2CCN(CC(O)COc3ccccc3Cl)CC2)cc1 (centres undefined)
inactive: [4] 95 % of control | [11] 95 % of control | [12] 95 % of control

CCOC(=O)CNC(=O)NCc1ccc2c(c1)OCO2
inactive: [16] 98 % of control | [18] 90 % of control
